In patent US20030005927A1, “Process and device for inhalation of particulate medicaments” (priority 1996, published 2003):
Entries after “also recorded” stand apart in the source; their conditions may differ. Counter-ions that a name gives are not always drawn.

Assay: Spray drying of solutions; particle geometric diameter and hollow/solid structure by photomicrograph
Assay type: physicochemical
Settings: for Geometric Diameter (average particle diameter) / Hollow or Solid: spray dried particles from aqueous solution; for Geometric Diameter (average particle diameter): VIRTIS spray dryer; for Hollow or Solid: photomicrographs
Protocol: Medicament powder of each of the two medicaments, albuterol sulfate and amiloride HCl (abbreviated herein as Alb S and Amil HCl, respectively), is employed in this example. Also, the excipient, lactose, is employed in this example. Aliquots of each of the medicaments, and also of lactose, are spray dried as follows.
15 g of Alb S (lot no. W 1946 FB) are dissolved in 300 ml of water to create a 5% solution. Similarly, 3.479 g of Amil HCl (lot no. 9007H 902) are diluted in water to 1000 ml to create a solution. Likewise, 15 g of lactose (lot no. 1NC25, 605 from Sheffield Products of Norwich, N.Y.) are diluted in water to 150 ml to create a solution.
Each solution is respectively spray dried using a VIRTIS™ (a spray dryer commercially available from The Virtis Company of Gardiner, N.Y.) with each of the air from the nozzle and from the blower set at its respective maximum value under the following conditions of temperature and rate, as summarized in Table A below: […]

| Geometric Diameter (average particle diameter) [μm] | Hollow or Solid (listed as lactose) | average particle diameter of the largest particulate (spray dried, photomicrographs FIGS. 6 and 7) | Molecule | Hollow or Solid | Hollow or Solid (HCl) |
| --- | --- | --- | --- | --- | --- |
| 2 | spherical hollow particulates | about 17 μm | OC[C@H]1O[C@@H](O[C@H]2[C@H](O)[C@@H](O)C(O)O[C@@H]2CO)[C@H](O)[C@@H](O)[C@H]1O (some centres unmarked) [Lactose, lactose] | hollow spheres |  |
| 1 to 5 |  |  | albuterol sulfate [Alb S] | dimpled solid structures; also recorded: dimpled solids |  |
| 1 to 5 |  |  | N=C(N)NC(=O)c1nc(Cl)c(N)nc1N [Amil HCl, amiloride HCl] |  | spherical hollow particulates; also recorded: hollow spheres |
